The record followed here is patent US9920010B2, “CXCR7 receptor modulators” (IDORSIA PHARMACEUTICALS LTD, priority 2013, dated 2018).

pEC50: −log10 of the molar value.

T1 sequence (P25106 whole entry): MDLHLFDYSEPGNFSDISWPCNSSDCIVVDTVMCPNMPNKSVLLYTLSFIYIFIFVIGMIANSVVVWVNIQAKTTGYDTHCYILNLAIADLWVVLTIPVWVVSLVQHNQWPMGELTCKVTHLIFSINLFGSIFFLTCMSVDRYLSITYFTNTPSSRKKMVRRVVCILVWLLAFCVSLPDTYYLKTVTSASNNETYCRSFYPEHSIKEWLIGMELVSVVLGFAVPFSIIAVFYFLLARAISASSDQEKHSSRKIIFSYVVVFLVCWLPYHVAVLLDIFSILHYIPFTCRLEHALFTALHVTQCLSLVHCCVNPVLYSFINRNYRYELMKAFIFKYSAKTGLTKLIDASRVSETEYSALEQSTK
T1 sequence (P32121 whole entry partner): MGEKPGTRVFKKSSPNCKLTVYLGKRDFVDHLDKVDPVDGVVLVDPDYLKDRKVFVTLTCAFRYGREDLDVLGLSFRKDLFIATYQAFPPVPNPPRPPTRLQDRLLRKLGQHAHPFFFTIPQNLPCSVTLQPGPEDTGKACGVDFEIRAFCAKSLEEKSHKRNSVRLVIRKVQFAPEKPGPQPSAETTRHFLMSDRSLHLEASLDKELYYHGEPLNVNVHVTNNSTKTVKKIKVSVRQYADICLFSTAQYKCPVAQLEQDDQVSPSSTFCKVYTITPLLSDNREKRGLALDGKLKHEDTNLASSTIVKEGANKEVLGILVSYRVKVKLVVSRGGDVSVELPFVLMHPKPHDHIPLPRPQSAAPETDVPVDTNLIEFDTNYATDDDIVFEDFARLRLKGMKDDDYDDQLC

The assay concerns the target T1, CXCR7 (Homo sapiens, UniProt P25106).
T1 construct: host or cells: CHO-K1 (PathHunter CHO-K1 CXCR7 b-arrestin cell line, stably transfected)
Briefly: PathHunter CHO-K1 CXCR7 b-arrestin recruitment assay (CXCR7 agonistic activity). Type of assay: cell-based. Conditions: PathHunter CHO-K1 CXCR7 b-arrestin cell line. The method in brief:
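Stable CHO-K1 line with C-terminally ProLink-tagged CXCR7 and β-arrestin 2–EA fusion; β-arrestin recruitment restores β-gal activity, read by chemiluminescence after 1 h RT detection. Cells seeded 24 h, starved in OPTIMEM 3–4 h, exposed to compounds 90 min at 37 °C in HBSS/HEPES/BSA. Geometric-mean EC50 from repeated measurements.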
For orientation: Activated receptors often draw arrestin, which recruitment assays turn into a signal.
`CN1CCC(N(Cc2ccccc2C(F)(F)F)C(=O)CCc2cccc3c2CCN(CC2CC2)C3)CC1` [compound 160, 3-(2-Cyclopropylmethyl-1,2,3,4-tetrahydro-isoquinolin-5-yl)-N-(1-methyl-piperidin-4-yl)-N-(2-trifluoromethyl-benzyl)-propionamide]: the pEC50 was 7.82.
Take `CN(C)CCN(Cc1ncccc1C(F)(F)F)C(=O)CNc1cccc2c1CCN(C1COC1)C2` [Example 367, N-(2-Dimethylamino-ethyl)-2-(2-oxetan-3-yl-1,2,3,4-tetrahydro-isoquinolin-5-ylamino)-N-(3-trifluoromethyl-pyridin-2-ylmethyl)-acetamide]: the pEC50 was 6.94.
Take `O=C(CNc1cccc2c1CCN(CC1CC1)C2)N(Cc1ccccc1C(F)(F)F)C1CCOCC1` [Example 74, 2-(2-Cyclopropylmethyl-1,2,3,4-tetrahydro-isoquinolin-5-ylamino)-N-(tetrahydro-pyran-4-yl)-N-(2-trifluoromethyl-benzyl)-acetamide]: the pEC50 was 7.31.
For `CCCC(=O)N1CCc2c(cccc2NCC(=O)N(CCN(C)C)Cc2ccccc2)C1` [compound 114, N-Benzyl-2-(2-butyryl-1,2,3,4-tetrahydro-isoquinolin-5-ylamino)-N-(2-dimethylamino-ethyl)-acetamide], the pEC50 is 7.44.
`CN1CCN(C(=O)CNc2cccc3c2CCN(CC2CC2)C3)C(c2ccccc2)C1` (racemic) [Reference Example 104, rac-2-(2-Cyclopropylmethyl-1,2,3,4-tetrahydro-isoquinolin-5-ylamino)-1-(4-methyl-2-phenyl-piperazin-1-yl)-ethanone] had a pEC50 of 6.63.
For the molecule `CN(C)CCN(Cc1ncccc1C(F)(F)F)C(=O)CNc1cccc2c1CCN(CC1CCC1)C2` [Example 368, 2-(2-Cyclobutylmethyl-1,2,3,4-tetrahydro-isoquinolin-5-ylamino)-N-(2-dimethylamino-ethyl)-N-(3-trifluoromethyl-pyridin-2-ylmethyl)-acetamide], the pEC50 was 8.52.
To `C/C(=C\c1ccccc1)CN(CCC1CCCN1C)C(=O)CNc1cccc2c1CCN(CC1CC1)C2` (racemic) [Example 61, rac-2-(2-Cyclopropylmethyl-1,2,3,4-tetrahydro-isoquinolin-5-ylamino)-N-((E)-2-methyl-3-phenyl-allyl)-N-[2-(1-methyl-pyrrolidin-2-yl)-ethyl]-acetamide] belongs 8.30; to `C=CCOC(=O)N1CCc2c(cccc2NCC(=O)N(CCNC)Cc2ncccc2C(F)(F)F)C1` [compound 422, 5-({[(2-Methylamino-ethyl)-(3-trifluoromethyl-pyridin-2-ylmethyl)-carbamoyl]-methyl}-amino)-3,4-dihydro-1H-isoquinoline-2-carboxylic acid allyl ester], 7.48.
To `CCN1CCc2cccc(NCC(=O)N(CCC(C)C)Cc3ccccc3C(F)(F)F)c2C1` [compound 513] belongs 6.42; to `CN(C)CCCN(Cc1ccccc1)C(=O)CNc1cccc2c1CCN(CC1CC1)C2` [Example 37, N-Benzyl-2-(2-cyclopropylmethyl-1,2,3,4-tetrahydro-isoquinolin-5-ylamino)-N-(3-dimethylamino-propyl)-acetamide], 8.40; to `CCC(=O)N1CCc2c(cccc2NCC(=O)N(CCN(CC)CC)Cc2ccccc2)C1` [Example 27, N-Benzyl-N-(2-diethylamino-ethyl)-2-(2-propionyl-1,2,3,4-tetrahydro-isoquinolin-5-ylamino)-acetamide], 7.72.
With `CCN1CCc2cccc(NCC(=O)N(CCN(C)C)Cc3ccc(F)cc3C(F)(F)F)c2C1` [compound 523], the pEC50 was 7.24.
`CN(C)CCN(Cc1ncccc1Br)C(=O)CNc1cccc2c1CN(C1CCC1)CC2` [compound 456, N-(3-Bromo-pyridin-2-ylmethyl)-2-(2-cyclobutyl-1,2,3,4-tetrahydro-isoquinolin-8-ylamino)-N-(2-dimethylamino-ethyl)-acetamide] showed a negative logarithm of the EC50 (pEC50) of 8.10.
The value for `CNCCN(Cc1ncccc1C(F)(F)F)C(=O)CNc1cccc2c1CCN(C(=O)C(C)(C)C)C2` [compound 415] was 6.75; that for `CN(C)CCN(Cc1ccccc1C(F)(F)F)C(=O)CNc1cccc2c1CN(CC1CC1)CC2(C)C` [compound 199] was 6.59.
To `CCN(CCN(Cc1ccccc1C(F)(F)F)C(=O)CNc1cccc2c1CCN(CC1CC1)C2)CC1(C)COC1` [compound 453] belongs 8.22.
`CN(C)CCN(Cc1ccccc1C(F)(F)F)C(=O)CNc1cccc2c1CCN(C1COC1)C2` [Example 353, N-(2-Dimethylamino-ethyl)-2-(2-oxetan-3-yl-1,2,3,4-tetrahydro-isoquinolin-5-ylamino)-N-(2-trifluoromethyl-benzyl)-acetamide] gave a pEC50 of 7.07. This pEC50 is 1.15 log units lower than that of the molecule before.
`CCN1CCc2cccc(NCC(=O)N(CCNC)Cc3ccccc3C(F)(F)F)c2C1` [compound 444, 2-(2-Ethyl-1,2,3,4-tetrahydro-isoquinolin-8-ylamino)-N-(2-methylamino-ethyl)-N-(2-trifluoromethyl-benzyl)-acetamide]: the pEC50 was 7.82. This pEC50 lies 0.75 log units higher than the previous one.
Consider `CN(C)CCN(Cc1ccc(Br)cc1)C(=O)CNc1cccc2c1CCN(CC1CC1)C2` [Example 238, N-(4-Bromo-benzyl)-2-(2-cyclopropylmethyl-1,2,3,4-tetrahydro-isoquinolin-5-ylamino)-N-(2-dimethylamino-ethyl)-acetamide], for which the pEC50 was 7.37.
As to `CNCCN(Cc1ccccc1C(F)(F)F)C(=O)CNc1cccc2c1CCN(C(=O)C1CCC1)C2` [compound 389, 2-(2-Cyclobutanecarbonyl-1,2,3,4-tetrahydro-isoquinolin-5-ylamino)-N-(2-methylamino-ethyl)-N-(2-trifluoromethyl-benzyl)-acetamide], the pEC50 is 7.70.
In turn, `O=C(CNc1cccc2c1CCN(CC1CC1)C2)N(CCN1CCC(F)(F)C1)Cc1ccccc1C(F)(F)F` [Example 282, 2-(2-Cyclopropylmethyl-1,2,3,4-tetrahydro-isoquinolin-5-ylamino)-N-[2-(3,3-difluoro-pyrrolidin-1-yl)-ethyl]-N-(2-trifluoromethyl-benzyl)-acetamide] gave a pEC50 of 7.33.
To `CN(C)CCN(Cc1ccccc1Cl)C(=O)CNc1cccc2c1CCN(CC1CC1)C2` [compound 134, N-(2-Chloro-benzyl)-2-(2-cyclopropylmethyl-1,2,3,4-tetrahydro-isoquinolin-5-ylamino)-N-(2-dimethylamino-ethyl)-acetamide] belongs 8.70; to `CCC(=O)N1CCc2c(cccc2NCC(=O)N(Cc2ccccc2)Cc2nccn2C)C1` [Example 26, N-Benzyl-N-(1-methyl-1H-imidazol-2-ylmethyl)-2-(2-propionyl-1,2,3,4-tetrahydro-isoquinolin-5-ylamino)-acetamide], 6.35.
Take `O=C(/C=C/c1cccc2c1CCN(CC1CC1)C2)N(Cc1ccccc1)C1CCS(=O)(=O)C1` (centres unmarked) [compound 147]: the pEC50 is 7.80.
Turning to `CN(C)CCN(Cc1ccccc1C(F)(F)F)C(=O)CNc1cccc2c1CCN(CC1CCC1)C2` [Example 361, 2-(2-Cyclobutylmethyl-1,2,3,4-tetrahydro-isoquinolin-5-ylamino)-N-(2-dimethylamino-ethyl)-N-(2-trifluoromethyl-benzyl)-acetamide], the pEC50 is 8.22.
Molecule `CNCCN(Cc1ncccc1Cl)C(=O)CNc1cccc2c1CCN(CC1CC1)C2` [compound 436, N-(3-Chloro-pyridin-2-ylmethyl)-2-(2-cyclopropylmethyl-1,2,3,4-tetrahydro-isoquinolin-5-ylamino)-N-(2-methylamino-ethyl)-acetamide] had a pEC50 of 8.05. The pEC50 values of the last two molecules are within 0.2 log units of each other.
In turn, `CN(CCF)CCN(Cc1ccccc1C(F)(F)F)C(=O)CNc1cccc2c1CCN(CC1CC1)C2` [Example 244, 2-(2-Cyclopropylmethyl-1,2,3,4-tetrahydro-isoquinolin-5-ylamino)-N-{2-[(2-fluoro-ethyl)-methyl-amino]-ethyl}-N-(2-trifluoromethyl-benzyl)-acetamide] gave a pEC50 of 8.52.
The value for `CN(C)CCN(Cc1ccccc1C(F)(F)F)C(=O)CNc1cccc2c1CCN(C(=O)[C@H]1C[C@H]1F)C2` (single isomer, unassigned) [Example 363a, N-(2-Dimethylamino-ethyl)-2-[2-((1R*,2R*)-2-fluoro-cyclopropanecarbonyl)-1,2,3,4-tetrahydro-isoquinolin-5-ylamino]-N-(2-trifluoromethyl-benzyl)-acetamide] was 8.22; that for `CNCCN(Cc1ncccc1C(F)(F)F)C(=O)CNc1cccc2c1CCN(C(=O)OCCOC)C2` [compound 427] was 6.97; that for `CN(C)CCN(Cc1ccccc1C(F)(F)F)C(=O)CNc1cccc2c1CCN(C(=O)[C@@H]1C[C@@H]1F)C2` (single isomer, unassigned) [Example 363b, N-(2-Dimethylamino-ethyl)-2-[2-((1 S*,2S*)-2-fluoro-cyclopropanecarbonyl)-1,2,3,4-tetrahydro-isoquinolin-5-ylamino]-N-(2-trifluoromethyl-benzyl)-acetamide] was 8.30.
To `COCCN1CCc2c(cccc2NCC(=O)N(Cc2ccccc2C(F)(F)F)CC(O)COC)C1` (centres unmarked) [Example 299, N-(2-Hydroxy-3-methoxy-propyl)-2-[2-(2-methoxy-ethyl)-1,2,3,4-tetrahydro-isoquinolin-5-ylamino]-N-(2-trifluoromethyl-benzyl)-acetamide] belongs 6.54; to `C/C(=C\c1cccc2c1CCN(CC1CC1)C2)C(=O)N(CCN(C)C)Cc1ccccc1C(F)(F)F` [compound 154, (E)-3-(2-Cyclopropylmethyl-1,2,3,4-tetrahydro-isoquinolin-5-yl)-N-(2-dimethylamino-ethyl)-2-methyl-N-(2-trifluoromethyl-benzyl)-acrylamide], 7.54.

Usually pEC50 stands for the negative decadic logarithm of the EC50, by convention in mol/L. Higher therefore signals a small EC50.
